Assay results taken from patent US9586928B2 (The Scripps Research Institute, priority 2011, dated 2017).

Legend:
RORα = target: T1, RORα (Homo sapiens, UniProt P35398); assay: Gal4-RORα LBD / UAS luciferase cotransfection assay; type: cell-based; conditions: 10 μM
T1 construct: expressed in transfected cells; host or cells: HEK293T
T1 sequence (P35398 272-510 limits assumed): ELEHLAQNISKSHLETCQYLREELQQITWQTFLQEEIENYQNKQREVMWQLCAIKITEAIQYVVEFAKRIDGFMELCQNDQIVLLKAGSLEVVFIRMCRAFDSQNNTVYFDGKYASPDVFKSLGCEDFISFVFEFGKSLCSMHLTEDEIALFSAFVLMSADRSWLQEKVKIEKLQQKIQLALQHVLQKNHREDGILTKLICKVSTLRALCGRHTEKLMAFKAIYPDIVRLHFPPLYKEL
Protocol: (§1) The cells were treated with either DMSO or various compounds as indicated four hours after replating. Following additional 20 hour incubation, luciferase levels were assayed by one-step addition of 20 μL BriteLite (Perkin Elmer) and read using an Envision multilabel plate reader (Perkin Elmer).
(§2) Cotransfection assays were performed as previously described in HEK293 cells (Gal4 cotransfection assay or IL-17 luciferase reporter)[8]. HEK293 and the mouse lymphoma EL4 (ATCC) cells were maintained in DMEM supplemented with 10% FBS plus antibiotics (penicillin and streptomycin; Invitrogen).

LXR = target: T2, LXR (Homo sapiens, UniProt Q13133); assay: Gal4-LXRα / UAS luciferase cotransfection assay; type: cell-based; conditions: 10 μM
T2 sequence (Q13133 209-447 limits assumed): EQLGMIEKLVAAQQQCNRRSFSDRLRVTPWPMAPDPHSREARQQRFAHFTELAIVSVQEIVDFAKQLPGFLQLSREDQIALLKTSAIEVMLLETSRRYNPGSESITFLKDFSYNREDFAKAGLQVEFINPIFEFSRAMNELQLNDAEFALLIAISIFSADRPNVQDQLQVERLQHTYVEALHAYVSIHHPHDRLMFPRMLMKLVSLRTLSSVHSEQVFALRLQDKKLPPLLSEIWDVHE
Protocol: as §1, §2

VP16 = assay: Gal4 DBD-VP16 / UAS luciferase control assay; type: cell-based; conditions: 10 μM
Protocol: as §1

RORγ = target: T3, RORγ (Homo sapiens, UniProt P51449); assay: Gal4-RORγ LBD / UAS luciferase cotransfection assay; type: cell-based; conditions: 10 μM
T3 construct: expressed in transfected cells; host or cells: HEK293T
T3 sequence (P51449 269-508 limits assumed): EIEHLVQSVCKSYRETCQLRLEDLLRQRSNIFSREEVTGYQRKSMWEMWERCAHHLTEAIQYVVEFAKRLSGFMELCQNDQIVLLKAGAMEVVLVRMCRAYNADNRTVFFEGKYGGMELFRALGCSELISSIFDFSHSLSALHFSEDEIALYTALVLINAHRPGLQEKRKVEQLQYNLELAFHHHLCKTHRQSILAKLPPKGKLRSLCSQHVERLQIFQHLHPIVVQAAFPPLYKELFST
Protocol: as §1, §2

GST-RORγ = target: T4, GST-RORγ (Homo sapiens, UniProt P51449); assay: RORγ scintillation proximity (SPA) radioligand binding assay, displacement of [3H]-T0901317; conditions: read-out: RORγ SPA % bound = % radiolabel bound; for remaining activity at 1 µM: 1 μM compound (Table 2D)
T4 construct: 1 μg of GST-RORγ-LBD, 5 nM of [3H]T1317 as radioligand
T4 sequence (P51449 269-508 limits assumed): T3 sequence (P51449 269-508 limits assumed)

Row | Compound | RORα repression, fold change over DMSO (RORα) | LXR activation, fold change over DMSO (LXR) | VP16 repression, fold change over DMSO (VP16) | RORγ repression, fold change over DMSO (RORγ) | remaining activity at 1 µM (GST-RORγ) | remaining activity at 10 µM (GST-RORγ; 10 μM compound)
1 | OC(c1ccc(-c2ccc(CN3CCN(Cc4c(F)cncc4F)CC3)cc2)cc1)(C(F)(F)F)C(F)(F)F [Compound 101, 2-(4′-((4-((3,5-Difluoropyridin-4-yl)methyl)piperazin-1-yl)methyl)-[1,1′-biphenyl]-4-yl)-1,1,1,3,3,3-hexafluoropropan-2-ol] | 0.8 fold change over DMSO | 4 fold change over DMSO | 0.75 fold change over DMSO | 0.15 fold change over DMSO | – | –
2 | O=C(C1CCCO1)N1CCN(Cc2ccc(-c3ccc(C(O)(C(F)(F)F)C(F)(F)F)cc3)cc2)CC1 (stereo not drawn) [Compound 16, (4-((4′-(1,1,1,3,3,3-Hexafluoro-2-hydroxypropan-2-yl)-[1,1′-biphenyl]-4-yl)methyl)piperazin-1-yl)(tetrahydrofuran-2-yl)methanone] | 0.8 fold change over DMSO | 1.4 fold change over DMSO | 0.6 fold change over DMSO | 0.6 fold change over DMSO | – | –
3 | OC(c1ccc(-c2ccc(CN3CCN(CCc4ccccc4)CC3)cc2)cc1)(C(F)(F)F)C(F)(F)F [Compound 11, 1,1,1,3,3,3-Hexafluoro-2-(4′-((4-phenethylpiperazin-1-yl)methyl)-[1,1′-biphenyl]-4-yl)propan-2-ol] | 0.5 fold change over DMSO | 1 fold change over DMSO | 0.35 fold change over DMSO | 0.5 fold change over DMSO | – | –
4 | O=S(=O)(Cc1ccccc1)N1CCN(Cc2ccc(-c3ccc(C(O)(C(F)(F)F)C(F)(F)F)cc3)cc2)CC1 [Compound 30, 2-(4′-((4-(Benzylsulfonyl)piperazin-1-yl)methyl)-[1,1′-biphenyl]-4-yl)-1,1,1,3,3,3-hexafluoropropan-2-ol] | 1 fold change over DMSO | 2 fold change over DMSO | 0.75 fold change over DMSO | 0.75 fold change over DMSO | – | –
5 | OCCN1CCN(Cc2ccc(-c3ccc(C(O)(C(F)(F)F)C(F)(F)F)cc3)cc2)CC1 [Compound 2, 1,1,1,3,3,3-Hexafluoro-2-(4′-((4-(2-hydroxyethyl)piperazin-1-yl)methyl)-[1,1′-biphenyl]-4-yl)propan-2-ol] | 1.3 fold change over DMSO | 1.1 fold change over DMSO | 0.9 fold change over DMSO | 0.9 fold change over DMSO | – | –
6 | OC(c1ccc(-c2ccc(CN3CCN(Cc4ccncc4)CC3)c(Cl)c2)cc1)(C(F)(F)F)C(F)(F)F [Compound 93, 2-(3′-Chloro-4′-((4-(pyridin-4-ylmethyl)piperazin-1-yl)methyl)-[1,1′-biphenyl]-4-yl)-1,1,1,3,3,3-hexafluoropropan-2-ol] | 0.4 fold change over DMSO | 1.5 fold change over DMSO | 0.7 fold change over DMSO | 0.05 fold change over DMSO | – | –
7 | CS(=O)(=O)N1CCN(Cc2ccc(-c3ccc(C(O)(C(F)(F)F)C(F)(F)F)cc3)cc2)CC1 [Compound 28, 1,1,1,3,3,3-Hexafluoro-2-(4′-((4-(methylsulfonyl)piperazin-1-yl)methyl)-[1,1′-biphenyl]-4-yl)propan-2-ol] | 1.1 fold change over DMSO | 1.5 fold change over DMSO | 0.75 fold change over DMSO | 0.5 fold change over DMSO | – | –
8 | O=C(c1ccccc1)N1CCN(Cc2ccc(-c3ccc(C(O)(C(F)(F)F)C(F)(F)F)cc3)cc2)CC1 [Compound 26, (4-((4′-(1,1,1,3,3,3-Hexafluoro-2-hydroxypropan-2-yl)-[1,1′-biphenyl]-4-yl)methyl)piperazin-1-yl)(phenyl)methanone] | 0.9 fold change over DMSO | 2 fold change over DMSO | 0.7 fold change over DMSO | 0.8 fold change over DMSO | – | –
9 | OC(c1ccc(-c2ccc(CN3CCN(Cc4cc5cc(F)ccc5[nH]4)CC3)cc2)cc1)(C(F)(F)F)C(F)(F)F [Compound 20, 1,1,1,3,3,3-Hexafluoro-2-(4′-((4-((5-fluoro-1H-indol-2-yl)methyl)piperazin-1-yl)methyl)-[1,1′-biphenyl]-4-yl)propan-2-ol] | 0.1 fold change over DMSO | 2.5 fold change over DMSO | 0.1 fold change over DMSO | 0.05 fold change over DMSO | – | –
10 | OC(c1ccc(-c2ccc(CN3CCN(Cc4ccnc(Br)c4)CC3)cc2)cc1)(C(F)(F)F)C(F)(F)F [Compound 40, 2-(4′-((4-((2-Bromopyridin-4-yl)methyl)piperazin-1-yl)methyl)-[1,1′-biphenyl]-4-yl)-1,1,1,3,3,3-hexafluoropropan-2-ol] | 0.1 fold change over DMSO | 1 fold change over DMSO | 0.05 fold change over DMSO | 0.05 fold change over DMSO | – | –
11 | OC(c1ccc(-c2ccc(CN3CCN(Cc4ccncc4)CC3)cc2C(F)(F)F)cc1)(C(F)(F)F)C(F)(F)F [Example 160, 1,1,1,33,33-hexafluoro-2-(4′-((4-(pyridin-4-ylmethyl)piperazin-1-yl)methyl)-2′-(trifluoromethyl)-[1,1′-biphenyl]-4-yl)propan-2-ol] | – | – | – | – | 77% | –
12 | CCC(c1ccc(-c2ccc(C(O)(C(F)(F)F)C(F)(F)F)cc2)cc1)N1CCN(Cc2ccncc2)CC1 (stereo not drawn) [Example 141, 1,1,1,3,3,3-hexafluoro-2-(4′-(1-(4-(pyridin-4-ylmethyl)piperazin-1-yl)propyl)-[1,1′-biphenyl]-4-yl)propan-2-ol] | – | – | – | – | 74% | –
13 | O=S(=O)(c1ccc(-c2ccc(C(O)(C(F)(F)F)C(F)(F)F)cc2)cc1)N1CCN(Cc2ccncc2)CC1 [Compound 138, 1,1,1,3,3,3-hexafluoro-2-(4′-((4-(pyridin-4-ylmethyl)piperazin-1-yl)sulfonyl)-[1,1′-biphenyl]-4-yl)propan-2-ol] | – | – | – | – | 68% | –
14 | O=C(Cc1ccc(-c2ccc(C(O)(C(F)(F)F)C(F)(F)F)cc2)cc1)N1CCN(Cc2ccncc2)CC1 [Compound 137, 2-(4′-(1,1,1,3,3,3-hexafluoro-2-hydroxypropan-2-yl)-[1,1′-biphenyl]-4-yl)-1-(4-(pyridin-4-ylmethyl)piperazin-1-yl)ethanone] | – | – | – | – | 81% | –
15 | O=C(Nc1ccc(-c2ccc(C(O)(C(F)(F)F)C(F)(F)F)cc2)cc1)N1CCN(Cc2ccncc2)CC1 [Compound 136, N-(4′-(1,1,1,3,3,3-hexafluoro-2-hydroxypropan-2-yl)-[1,1′-biphenyl]-4-yl)-4-(pyridin-4-ylmethyl)piperazine-1-carboxamide] | – | – | – | – | 76% | –
16 | CC(Cc1ccc(-c2ccc(C(O)(C(F)(F)F)C(F)(F)F)cc2)cc1)N1CCN(Cc2ccncc2)CC1 (stereo not drawn) [Example 143, 1,1,1,3,3,3-hexafluoro-2-(4′-(2-(4-(pyridin-4-ylmethyl)piperazin-1-yl)propyl)-[1,1′-biphenyl]-4-yl)propan-2-ol] | – | – | – | – | 74% | –
17 | CC1CN(Cc2ccncc2)CCN1Cc1ccc(-c2ccc(C(O)(C(F)(F)F)C(F)(F)F)cc2)cc1 (stereo not drawn) [Compound 118] | – | – | – | – | – | 20%
18 | N#Cc1cc(-c2ccc(C(O)(C(F)(F)F)C(F)(F)F)cc2)ccc1CN1CCN(Cc2ccncc2)CC1 [Example 161, 4′-(1,1,1,3,3,3-hexafluoro-2-hydroxypropan-2-yl)-4-((4-(pyridin-4-ylmethyl)piperazin-1-yl)methyl)-[1,1′-biphenyl]-3-carbonitrile] | – | – | – | – | 95% | –
